Patent US20070032529A1, “Pyrazole compounds and their use as antidiabetes agents” (Japan Tobacco Inc., priority 2005, published 2007)
Like-named read-outs stand apart in the source and are kept apart here. Values belong to the molecule of their own block, whether it stands above or below them.

Biological target: T1, recombinant human liver glycogen phosphorylase (Homo sapiens, UniProt P06737)
T1 construct: made in house; host or cells: Sf9 insect cells (crude homogenate, diluted, used as the enzyme solution)
T1 sequence (P06737 1-847): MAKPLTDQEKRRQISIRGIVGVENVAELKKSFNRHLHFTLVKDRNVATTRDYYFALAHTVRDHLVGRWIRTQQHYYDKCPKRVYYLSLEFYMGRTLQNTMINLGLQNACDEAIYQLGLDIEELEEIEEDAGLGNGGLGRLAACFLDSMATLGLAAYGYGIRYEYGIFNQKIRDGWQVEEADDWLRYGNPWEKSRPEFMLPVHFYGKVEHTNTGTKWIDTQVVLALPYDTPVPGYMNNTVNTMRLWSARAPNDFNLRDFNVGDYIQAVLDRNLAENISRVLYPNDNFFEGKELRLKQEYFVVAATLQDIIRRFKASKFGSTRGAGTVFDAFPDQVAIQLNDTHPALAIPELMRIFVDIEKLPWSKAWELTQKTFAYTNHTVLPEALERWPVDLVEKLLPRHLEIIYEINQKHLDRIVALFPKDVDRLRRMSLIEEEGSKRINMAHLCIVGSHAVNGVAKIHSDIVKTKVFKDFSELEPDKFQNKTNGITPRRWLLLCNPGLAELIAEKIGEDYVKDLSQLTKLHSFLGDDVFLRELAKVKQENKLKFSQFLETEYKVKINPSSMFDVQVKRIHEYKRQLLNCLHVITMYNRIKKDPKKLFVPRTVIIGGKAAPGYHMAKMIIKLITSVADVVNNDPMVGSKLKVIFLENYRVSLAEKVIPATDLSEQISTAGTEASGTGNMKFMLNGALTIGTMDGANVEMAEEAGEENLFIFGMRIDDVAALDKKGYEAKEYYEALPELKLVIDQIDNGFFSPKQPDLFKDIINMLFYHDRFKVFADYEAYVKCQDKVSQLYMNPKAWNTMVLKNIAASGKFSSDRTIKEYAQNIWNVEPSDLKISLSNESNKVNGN
Assay: Measuring liver glycogen phosphorylase activity (forward reaction system, NADPH absorbance at 340 nm)
Type: biochemical
Settings: for inhibition at 0.3 µM: compound concentration 300 nmol (in parentheses)
How it was run: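 Sf9 homogenate expressing the enzyme, in pH 6.8 BES/EDTA, with glycogen and phosphate substrate plus glucose, coupled via phosphoglucomutase/G6PDH to NADPH formation. A340 change over 75 min at room temperature, blank-corrected; IC50 linearly interpolated between the two concentrations bracketing 50% inhibition versus 1% DMSO control.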

[1] = read-out: inhibition rate (%) at a certain concentration
[2] = human liver glycogen phosphorylase, class symbol
[3] = figure in brackets (100), read-out: IC50: % value given with (100)
[4] = enzyme inhibitory activity with respect to liver glycogen phosphorylase, class symbols
[5] = compound concentration 100 nmol (in parentheses), read-out: inhibition rate (%) at a certain concentration

Compound: O=C(NC1CCCCC1)c1cc(NC(=O)c2cc(F)c(F)cc2Cl)[nH]n1 [Example 1-79]
inhibition at 0.3 µM [1]: 23.3%

Compound: COc1cscc1CNC(=O)c1cc(NC(=O)c2cc(F)c(F)cc2Cl)[nH]n1 [Example 1-164]
IC50 [4]: < 0.1 µM

Compound: O=C(Nc1cc(C(=O)N(Cc2ccccc2)Cc2ccccc2)n[nH]1)c1cc(F)c(F)cc1Cl [Example 1-74]
IC50 [4]: 0.1 to 0.3 µM

Compound: COc1ccsc1CNC(=O)c1cc(NC(=O)c2cc(F)c(F)cc2Cl)[nH]n1 [Example 1-160]
IC50 [4]: < 0.1 µM

Compound: COc1cccc(CNC(=O)c2cc(NC(=O)c3cc(F)c(F)cc3Cl)[nH]n2)c1OC [Example 1-13]
IC50 [4]: < 0.1 µM

Compound: O=C(NCc1cccc(-c2ccccc2)c1)c1cc(NC(=O)c2cc(F)c(F)cc2Cl)[nH]n1 [Example 2-29]
inhibition at 0.1 µM [5]: 45.8%

Compound: CCNC(=O)c1cccc(CNC(=O)c2cc(NC(=O)c3cc(F)c(F)cc3Cl)[nH]n2)c1 [Example 1-121]
IC50 [4]: < 0.1 µM

Compound: CCCCN(CCCC)C(=O)c1cc(NC(=O)c2cc(F)c(F)cc2Cl)[nH]n1 [Example 1-93]
IC50 [4]: < 0.1 µM

Compound: CCNC(=O)c1ccc(CNC(=O)c2cc(NC(=O)c3cc(F)c(F)cc3Cl)[nH]n2)cc1 [Example 1-120]
IC50 [4]: < 0.1 µM

Compound: O=C(O)CCN(Cc1ccccc1)C(=O)c1cc(NC(=O)c2cc(F)c(F)cc2Cl)[nH]n1 [Example 1-131]
IC50 [4]: < 0.1 µM

Compound: O=C(NCc1cc(Cl)c(Cl)s1)c1cc(NC(=O)c2cc(F)c(F)cc2Cl)[nH]n1 [Example 1-161]
IC50 [4]: < 0.1 µM

Compound: COCCN(C(=O)c1cc(NC(=O)c2cc(F)c(F)cc2Cl)[nH]n1)C1CCOCC1 [Example 1-97]
IC50 [4]: < 0.1 µM

Compound: CCOC(=O)C(C)(C)c1cnc(NC(=O)c2cc(NC(=O)c3cc(F)c(F)cc3Cl)[nH]n2)c(OCC)c1 [Example 1-148]
inhibition at 0.1 µM [5]: 14.1%

The remaining lines, values ahead:

inhibition at 0.3 µM [1]: 15.2%
Compound: O=C(NCc1ccccc1)c1cc(NC(=O)c2cc(F)ccc2C(F)(F)F)[nH]n1 [Example 4-33]

IC50 [2]: < 0.1 µM
Compound: N=C(Nc1ccc(CNC(=O)c2cc(NC(=O)c3cc(F)c(F)cc3Cl)[nH]n2)cc1)c1ccccc1F [Example 6-35]

IC50 [2]: < 0.1 µM
Compound: Cc1cc(F)c(F)cc1C(=O)Nc1cc(C(=O)N(C)c2ccc(-c3nnn[nH]3)cc2)n[nH]1 [Example 7-2]

inhibition at 0.1 µM [3]: 47.3%
Compound: Nc1cc(F)c(F)cc1C(=O)Nc1cc(C(=O)NCc2cccnc2)n[nH]1 [Example 7-11]

IC50 [2]: < 0.1 µM
Compound: CCN(C=Nc1ccccc1CNC(=O)c1cc(NC(=O)c2cc(F)c(F)cc2Cl)[nH]n1)CC [Example 6-27]

inhibition at 0.1 µM [3]: 2.1%
Compound: CN(C(=O)c1cc(NC(=O)c2cc(F)c(F)cc2Cl)[nH]n1)c1ccc(C(=N)NO)cc1 [Example 6-11]

IC50 [2]: < 0.1 µM
Compound: CN(C)C(=O)Nc1ccc(CNC(=O)c2cc(NC(=O)c3cc(F)c(F)cc3Cl)[nH]n2)cc1 [Example 6-37]

IC50 [2]: < 0.1 µM
Compound: CS(=O)(=O)Nc1ccccc1CNC(=O)c1cc(NC(=O)c2cc(F)c(F)cc2Cl)[nH]n1 [Example 6-19]

inhibition at 0.3 µM [1]: 5.1%
Compound: COc1ccc(F)cc1C(=O)Nc1cc(C(=O)NCc2ccccc2)n[nH]1 [Example 4-16]

inhibition at 0.1 µM [3]: 8%
Compound: CS(=O)(=O)Nc1cc(F)c(F)cc1C(=O)Nc1cc(C(=O)NCc2cccnc2)n[nH]1 [Example 7-12]

IC50 [2]: 0.1 to 0.3 µM
Compound: CN(C(=O)c1cc(NC(=O)c2cc(F)c(N=[N+]=[N-])cc2Cl)[nH]n1)c1ccc(-c2nnn[nH]2)cc1 [Example 6-10]

inhibition at 0.3 µM [1]: 3.8%
Compound: Cc1ccc(C(=O)Nc2cc(C(=O)NCc3ccccc3)n[nH]2)c(Cl)n1 [Example 4-43]

IC50 [4]: < 0.1 µM
Compound: CCCN(C(=O)c1cc(NC(=O)c2cc(F)c(F)cc2Cl)[nH]n1)c1ccccc1 [Example 3-16]

IC50 [4]: < 0.1 µM
Compound: O=C(O)CCNC(=O)c1ccc(CNC(=O)c2cc(NC(=O)c3cc(F)c(F)cc3Cl)[nH]n2)cc1 [Example 5-7]

inhibition at 1 µM (compound concentration 1000 nmol (in parentheses), read-out: inhibition rate (%) at a certain concentration): 42.5%
Compound: CCOC(=O)C1CCN(C(=O)c2cc(NC(=O)c3cc(F)c(F)cc3Cl)[nH]n2)CC1 [Example 3-6]
